Laboratory results published in article PMC7265341, “Quantifying CDK inhibitor selectivity in live cells” (Nature Communications, 2020).
Like-named read-outs stand apart in the source and are kept apart here.

Assays:
CDK7 = CDK7 (Homo sapiens, UniProt P50613); experiment: NanoBRET live-cell target engagement, NanoLuc-CDK7 in HEK-293; assay type: binding; settings: CDK7, read-out: Inhibition at 10µM (%)
CDK20/Cyclin H = CDK20/Cyclin H (Homo sapiens, UniProt Q8IZL9); experiment: NanoBRET live-cell target engagement, NanoLuc-CDK20/Cyclin H in HEK-293; assay type: binding; settings: read-out: Inhibition at 10µM (%), CDK20/H
CDK11B/Cyclin L2 = CDK11B/Cyclin L2 (Homo sapiens, UniProt P21127); experiment: NanoBRET live-cell target engagement, CDK11B-NanoLuc/Cyclin L2 in HEK-293; assay type: binding; settings: read-out: Inhibition at 10µM (%), CDK11b/L2
Chain of CDK11B/Cyclin L2 (P21127 1-782 isoform P21127-2): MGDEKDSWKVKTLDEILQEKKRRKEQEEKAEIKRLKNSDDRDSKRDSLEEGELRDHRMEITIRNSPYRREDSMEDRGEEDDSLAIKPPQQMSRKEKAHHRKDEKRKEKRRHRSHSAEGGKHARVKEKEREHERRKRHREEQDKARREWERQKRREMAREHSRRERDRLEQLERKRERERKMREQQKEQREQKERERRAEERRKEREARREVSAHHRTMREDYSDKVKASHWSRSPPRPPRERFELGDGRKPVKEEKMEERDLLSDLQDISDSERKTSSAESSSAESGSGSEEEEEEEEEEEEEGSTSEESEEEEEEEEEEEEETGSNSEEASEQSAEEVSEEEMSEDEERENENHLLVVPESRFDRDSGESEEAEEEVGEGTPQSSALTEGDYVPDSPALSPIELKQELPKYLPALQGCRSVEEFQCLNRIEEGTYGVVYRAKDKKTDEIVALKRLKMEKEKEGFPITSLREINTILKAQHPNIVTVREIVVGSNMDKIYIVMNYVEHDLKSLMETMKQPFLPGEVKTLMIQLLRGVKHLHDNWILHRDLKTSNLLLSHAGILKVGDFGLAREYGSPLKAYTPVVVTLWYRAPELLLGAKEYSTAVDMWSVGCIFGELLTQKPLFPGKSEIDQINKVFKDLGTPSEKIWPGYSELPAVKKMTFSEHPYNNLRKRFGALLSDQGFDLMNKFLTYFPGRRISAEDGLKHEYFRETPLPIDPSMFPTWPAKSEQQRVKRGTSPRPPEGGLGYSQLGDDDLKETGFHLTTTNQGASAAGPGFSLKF

CDK9/Cyclin K = CDK9/Cyclin K (Homo sapiens, UniProt P50750); experiment: NanoBRET live-cell target engagement, NanoLuc-CDK9/Cyclin K in HEK-293; assay type: binding; settings: CDK9/K, read-out: Inhibition at 10µM (%)
CDK14/Cyclin Y = CDK14/Cyclin Y (Homo sapiens, UniProt O94921); experiment: NanoBRET live-cell target engagement, CDK14-NanoLuc/Cyclin Y in HEK-293; assay type: binding; settings: read-out: Inhibition at 10µM (%), CDK14/Y
CDK5/CDK5R1 = CDK5/CDK5R1 (Homo sapiens, UniProt Q00535); experiment: NanoBRET live-cell target engagement, CDK5-NanoLuc/CDK5R1 in HEK-293; assay type: binding; settings: CDK5/CDK5R1, read-out: Inhibition at 10µM (%)
CDK6/Cyclin D1 = CDK6/Cyclin D1 (Homo sapiens, UniProt Q00534); experiment: NanoBRET live-cell target engagement, NanoLuc-CDK6/Cyclin D1 in HEK-293; assay type: binding; settings: CDK6/D1, read-out: Inhibition at 10µM (%)
Chain of CDK6/Cyclin D1 (Q00534 whole entry): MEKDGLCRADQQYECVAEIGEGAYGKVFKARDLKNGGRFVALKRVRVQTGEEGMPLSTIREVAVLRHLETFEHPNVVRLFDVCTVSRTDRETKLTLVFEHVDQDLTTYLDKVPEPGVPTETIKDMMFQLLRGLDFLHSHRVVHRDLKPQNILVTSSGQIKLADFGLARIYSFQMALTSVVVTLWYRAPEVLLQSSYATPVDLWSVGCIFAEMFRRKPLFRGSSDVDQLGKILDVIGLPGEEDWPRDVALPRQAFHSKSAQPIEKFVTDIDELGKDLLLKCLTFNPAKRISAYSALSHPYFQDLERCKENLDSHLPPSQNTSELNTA
Chain of CDK6/Cyclin D1 (P24385 whole entry partner): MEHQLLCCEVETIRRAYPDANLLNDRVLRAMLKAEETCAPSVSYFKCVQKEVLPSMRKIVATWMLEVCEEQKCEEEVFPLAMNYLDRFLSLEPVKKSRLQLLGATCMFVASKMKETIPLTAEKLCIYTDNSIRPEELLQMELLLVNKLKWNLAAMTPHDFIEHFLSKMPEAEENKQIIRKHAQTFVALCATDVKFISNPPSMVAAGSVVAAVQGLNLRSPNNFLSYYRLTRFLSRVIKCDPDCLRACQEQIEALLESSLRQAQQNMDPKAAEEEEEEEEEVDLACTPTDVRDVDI

CDK3/Cyclin E1 = CDK3/Cyclin E1 (Homo sapiens, UniProt Q00526); experiment: NanoBRET live-cell target engagement, CDK3-NanoLuc/Cyclin E1 in HEK-293; assay type: binding; settings: CDK3/E1, read-out: Inhibition at 10µM (%)
Chain of CDK3/Cyclin E1 (Q00526 whole entry): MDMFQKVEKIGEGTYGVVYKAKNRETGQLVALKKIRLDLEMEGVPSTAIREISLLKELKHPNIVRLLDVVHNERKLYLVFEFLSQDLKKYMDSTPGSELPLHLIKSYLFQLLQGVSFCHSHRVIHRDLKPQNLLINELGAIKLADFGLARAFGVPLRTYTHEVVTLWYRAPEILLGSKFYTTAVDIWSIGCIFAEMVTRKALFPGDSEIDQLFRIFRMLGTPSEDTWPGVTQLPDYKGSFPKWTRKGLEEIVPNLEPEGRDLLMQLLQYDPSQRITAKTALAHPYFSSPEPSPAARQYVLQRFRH
Chain of CDK3/Cyclin E1 (P24864 whole entry partner): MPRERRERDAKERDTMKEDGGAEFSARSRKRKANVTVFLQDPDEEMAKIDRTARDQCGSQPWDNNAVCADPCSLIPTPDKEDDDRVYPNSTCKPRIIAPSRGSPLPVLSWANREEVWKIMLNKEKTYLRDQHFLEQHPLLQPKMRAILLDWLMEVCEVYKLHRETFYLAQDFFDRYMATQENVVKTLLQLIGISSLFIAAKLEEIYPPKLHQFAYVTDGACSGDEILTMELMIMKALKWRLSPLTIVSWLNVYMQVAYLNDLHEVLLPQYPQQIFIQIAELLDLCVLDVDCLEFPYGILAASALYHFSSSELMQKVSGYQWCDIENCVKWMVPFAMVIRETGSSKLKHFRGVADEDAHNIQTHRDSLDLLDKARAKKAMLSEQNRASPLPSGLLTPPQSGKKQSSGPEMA

CDK8/Cyclin C = CDK8/Cyclin C (Homo sapiens, UniProt P49336); experiment: NanoBRET live-cell target engagement, NanoLuc-CDK8/Cyclin C in HEK-293; assay type: binding; settings: CDK8/C, read-out: Inhibition at 10µM (%)
Chain of CDK8/Cyclin C (P49336 whole entry): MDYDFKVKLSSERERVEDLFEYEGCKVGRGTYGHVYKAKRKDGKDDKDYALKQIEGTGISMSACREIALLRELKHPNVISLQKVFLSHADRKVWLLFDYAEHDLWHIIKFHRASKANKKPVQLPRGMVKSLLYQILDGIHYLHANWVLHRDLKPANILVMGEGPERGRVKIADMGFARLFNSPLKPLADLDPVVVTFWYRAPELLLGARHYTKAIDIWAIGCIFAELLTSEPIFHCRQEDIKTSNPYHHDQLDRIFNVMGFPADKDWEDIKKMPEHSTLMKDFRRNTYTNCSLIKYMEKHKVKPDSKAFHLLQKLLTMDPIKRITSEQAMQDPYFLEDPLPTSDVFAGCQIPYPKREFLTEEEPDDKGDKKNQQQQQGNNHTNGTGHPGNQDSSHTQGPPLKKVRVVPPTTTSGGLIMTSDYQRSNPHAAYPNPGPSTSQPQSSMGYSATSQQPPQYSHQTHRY
Chain of CDK8/Cyclin C (P24863 whole entry partner): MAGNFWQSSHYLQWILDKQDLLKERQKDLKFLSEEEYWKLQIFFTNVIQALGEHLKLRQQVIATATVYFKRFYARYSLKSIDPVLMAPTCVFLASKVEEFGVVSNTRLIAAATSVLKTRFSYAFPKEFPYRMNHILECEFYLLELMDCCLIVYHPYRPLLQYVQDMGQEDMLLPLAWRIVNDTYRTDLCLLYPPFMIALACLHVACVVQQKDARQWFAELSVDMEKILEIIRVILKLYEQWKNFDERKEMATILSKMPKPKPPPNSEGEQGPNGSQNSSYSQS

CDK13/Cyclin K = CDK13/Cyclin K (Homo sapiens, UniProt Q14004); experiment: NanoBRET live-cell target engagement, CDK13-NanoLuc/Cyclin K in HEK-293; assay type: binding; settings: CDK13/K, read-out: Inhibition at 10µM (%)
CDK1/Cyclin E1 = CDK1/Cyclin E1 (Homo sapiens, UniProt P06493); experiment: NanoBRET live-cell target engagement, CDK1-NanoLuc/Cyclin E1 in HEK-293; assay type: binding; settings: CDK1/E1, read-out: Inhibition at 10µM (%)
Chain of CDK1/Cyclin E1 (P06493 whole entry): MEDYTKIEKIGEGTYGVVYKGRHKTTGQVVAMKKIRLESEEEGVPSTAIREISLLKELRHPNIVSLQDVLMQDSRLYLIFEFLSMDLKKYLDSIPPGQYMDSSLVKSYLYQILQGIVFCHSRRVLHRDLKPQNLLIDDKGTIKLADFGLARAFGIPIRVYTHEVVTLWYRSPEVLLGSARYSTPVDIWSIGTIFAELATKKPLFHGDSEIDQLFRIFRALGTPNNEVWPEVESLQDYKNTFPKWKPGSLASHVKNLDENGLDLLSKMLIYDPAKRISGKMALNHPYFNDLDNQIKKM
Chain of CDK1/Cyclin E1 (P24864 whole entry partner): as the sequence (P24864 whole entry partner) above

CDK12/Cyclin K = CDK12/Cyclin K (Homo sapiens, UniProt Q9NYV4); experiment: NanoBRET live-cell target engagement, CDK12-NanoLuc/Cyclin K in HEK-293; assay type: binding; settings: read-out: Inhibition at 10µM (%), CDK12/K
CDK19/Cyclin C = CDK19/Cyclin C (Homo sapiens, UniProt Q9BWU1); experiment: NanoBRET live-cell target engagement, NanoLuc-CDK19/Cyclin C in HEK-293; settings: read-out: Inhibition at 10µM (%), CDK19/C
CDK10/Cyclin L2 = CDK10/Cyclin L2 (Homo sapiens, UniProt Q15131); experiment: NanoBRET live-cell target engagement, CDK10-NanoLuc/Cyclin L2 in HEK-293; settings: read-out: Inhibition at 10µM (%), CDK10/L2
CDK16/Cyclin Y = CDK16/Cyclin Y (Homo sapiens, UniProt Q00536); experiment: NanoBRET live-cell target engagement, CDK16-NanoLuc/Cyclin Y in HEK-293; assay type: binding; settings: read-out: Inhibition at 10µM (%), CDK16/Y
CDK18/Cyclin Y = CDK18/Cyclin Y (Homo sapiens, UniProt Q07002); experiment: NanoBRET live-cell target engagement, CDK18-NanoLuc/Cyclin Y in HEK-293; assay type: binding; settings: read-out: Inhibition at 10µM (%), CDK18/Y
CDK4/Cyclin D1 = CDK4/Cyclin D1 (Homo sapiens, UniProt P11802); experiment: NanoBRET live-cell target engagement, NanoLuc-CDK4/Cyclin D1 in HEK-293; assay type: binding; settings: CDK4/D1, read-out: Inhibition at 10µM (%)
Chain of CDK4/Cyclin D1 (P11802 whole entry): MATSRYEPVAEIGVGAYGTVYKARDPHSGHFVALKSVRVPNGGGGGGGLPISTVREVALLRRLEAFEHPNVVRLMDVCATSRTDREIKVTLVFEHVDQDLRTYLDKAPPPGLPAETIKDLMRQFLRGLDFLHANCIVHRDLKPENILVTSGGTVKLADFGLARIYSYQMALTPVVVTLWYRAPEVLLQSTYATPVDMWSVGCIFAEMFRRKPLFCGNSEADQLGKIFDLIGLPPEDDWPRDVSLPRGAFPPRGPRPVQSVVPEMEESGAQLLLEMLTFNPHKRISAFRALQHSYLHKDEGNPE
Chain of CDK4/Cyclin D1 (P24385 whole entry partner): as the sequence (P24385 whole entry partner) above

CDK15/Cyclin Y = CDK15/Cyclin Y (Homo sapiens, UniProt Q96Q40); experiment: NanoBRET live-cell target engagement, NanoLuc-CDK15/Cyclin Y in HEK-293; assay type: binding; settings: read-out: Inhibition at 10µM (%), CDK15/Y
Chain of CDK15/Cyclin Y (Q96Q40 whole entry): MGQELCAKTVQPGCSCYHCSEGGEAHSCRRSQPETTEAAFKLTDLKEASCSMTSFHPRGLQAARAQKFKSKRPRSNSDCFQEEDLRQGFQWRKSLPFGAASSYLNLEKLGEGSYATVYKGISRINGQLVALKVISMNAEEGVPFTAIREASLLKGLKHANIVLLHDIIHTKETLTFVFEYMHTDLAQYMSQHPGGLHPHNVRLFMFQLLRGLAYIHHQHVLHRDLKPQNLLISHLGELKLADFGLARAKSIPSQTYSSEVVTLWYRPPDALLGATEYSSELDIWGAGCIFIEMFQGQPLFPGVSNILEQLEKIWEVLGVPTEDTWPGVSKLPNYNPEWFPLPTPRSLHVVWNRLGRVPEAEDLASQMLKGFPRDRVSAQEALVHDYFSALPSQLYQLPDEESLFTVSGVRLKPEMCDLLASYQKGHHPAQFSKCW
Chain of CDK15/Cyclin Y (Q8ND76 whole entry partner): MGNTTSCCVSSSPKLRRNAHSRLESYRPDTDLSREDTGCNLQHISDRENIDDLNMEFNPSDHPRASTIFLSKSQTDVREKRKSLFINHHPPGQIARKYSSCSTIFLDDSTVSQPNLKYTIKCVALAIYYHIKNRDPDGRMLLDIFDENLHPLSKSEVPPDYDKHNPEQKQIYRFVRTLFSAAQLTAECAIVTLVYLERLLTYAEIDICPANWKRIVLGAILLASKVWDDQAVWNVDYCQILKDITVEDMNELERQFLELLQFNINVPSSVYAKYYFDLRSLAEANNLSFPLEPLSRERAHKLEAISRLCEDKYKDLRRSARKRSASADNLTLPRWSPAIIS

CDK2/Cyclin E1 = CDK2/Cyclin E1 (Homo sapiens, UniProt P24941); experiment: NanoBRET live-cell target engagement, CDK2-NanoLuc/Cyclin E1 in HEK-293; assay type: binding; settings: CDK2/E1, read-out: Inhibition at 10µM (%)
CDK17/Cyclin Y = CDK17/Cyclin Y (Homo sapiens, UniProt Q00537); experiment: NanoBRET live-cell target engagement, CDK17-NanoLuc/Cyclin Y in HEK-293; assay type: binding; settings: read-out: Inhibition at 10µM (%), CDK17/Y
Chain of CDK17/Cyclin Y (Q00537 whole entry): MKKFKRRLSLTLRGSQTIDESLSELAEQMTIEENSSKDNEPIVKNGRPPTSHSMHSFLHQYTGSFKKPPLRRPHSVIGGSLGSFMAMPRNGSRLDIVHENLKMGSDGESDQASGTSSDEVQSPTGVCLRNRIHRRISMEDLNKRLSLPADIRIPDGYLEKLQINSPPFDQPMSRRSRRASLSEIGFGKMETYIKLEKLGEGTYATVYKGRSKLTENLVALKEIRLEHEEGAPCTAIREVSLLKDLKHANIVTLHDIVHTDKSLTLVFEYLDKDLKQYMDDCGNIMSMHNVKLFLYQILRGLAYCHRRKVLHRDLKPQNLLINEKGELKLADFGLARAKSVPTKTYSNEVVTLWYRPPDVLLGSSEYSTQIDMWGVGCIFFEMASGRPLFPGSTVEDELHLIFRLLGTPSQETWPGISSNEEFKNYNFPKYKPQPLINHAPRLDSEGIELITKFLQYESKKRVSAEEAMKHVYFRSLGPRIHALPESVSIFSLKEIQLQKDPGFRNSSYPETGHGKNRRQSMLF
Chain of CDK17/Cyclin Y (Q8ND76 whole entry partner): as the sequence (Q8ND76 whole entry partner) above

Question: Which inhibition at 10 µM (CDK7; average) does the source give for COc1ccccc1-c1cc(Nc2cccc(CS(N)(=O)=O)c2)ncn1 [LDC000067] here?
Answer: -9.3%

Question: And the inhibition at 10 µM (CDK7; experiment 1)?
Answer: -12.1%

Question: What about the inhibition at 10 µM (CDK7; experiment 2) of the same compound?
Answer: -6.5%

Question: And the inhibition at 10 µM (CDK20/Cyclin H; experiment 1)?
Answer: 11.2%

Question: What about the inhibition at 10 µM (CDK20/Cyclin H; experiment 2) of the same compound?
Answer: 17.8%

Question: What about the inhibition at 10 µM (CDK11B/Cyclin L2; average) of the same compound?
Answer: 10.2%

Question: And the inhibition at 10 µM (CDK11B/Cyclin L2; experiment 1)?
Answer: 9.7%

Question: And the inhibition at 10 µM (CDK11B/Cyclin L2; experiment 2)?
Answer: 10.7%

Question: And the inhibition at 10 µM (CDK9/Cyclin K; average)?
Answer: 88.8%

Question: And the inhibition at 10 µM (CDK9/Cyclin K; experiment 1)?
Answer: 87.2%

Question: What about the inhibition at 10 µM (CDK9/Cyclin K; experiment 2) of the same compound?
Answer: 90.3%

Question: What about the inhibition at 10 µM (CDK14/Cyclin Y; average) of the same compound?
Answer: -2.3%

Question: What about the inhibition at 10 µM (CDK14/Cyclin Y; experiment 1) of the same compound?
Answer: -0.216%

Question: And the inhibition at 10 µM (CDK14/Cyclin Y; experiment 2)?
Answer: -4.4%

Question: What about the inhibition at 10 µM (CDK5/CDK5R1; average) of the same compound?
Answer: 11.4%

Question: And the inhibition at 10 µM (CDK5/CDK5R1; experiment 1)?
Answer: 17.5%

Question: And the inhibition at 10 µM (CDK5/CDK5R1; experiment 2)?
Answer: 5.3%

Question: And the inhibition at 10 µM (CDK6/Cyclin D1; average)?
Answer: 38.7%

Question: And the inhibition at 10 µM (CDK6/Cyclin D1; experiment 1)?
Answer: 31.9%

Question: And the inhibition at 10 µM (CDK6/Cyclin D1; experiment 2)?
Answer: 45.4%

Question: What about the inhibition at 10 µM (CDK3/Cyclin E1; average) of the same compound?
Answer: 27.7%

Question: What about the inhibition at 10 µM (CDK3/Cyclin E1; experiment 1) of the same compound?
Answer: 23.7%

Question: What about the inhibition at 10 µM (CDK3/Cyclin E1; experiment 2) of the same compound?
Answer: 31.7%

Question: What about the inhibition at 10 µM (CDK8/Cyclin C; average) of the same compound?
Answer: 5.3%

Question: And the inhibition at 10 µM (CDK8/Cyclin C; experiment 1)?
Answer: 5.1%

Question: What about the inhibition at 10 µM (CDK8/Cyclin C; experiment 2) of the same compound?
Answer: 5.6%

Question: And the inhibition at 10 µM (CDK13/Cyclin K; average)?
Answer: 10.2%

Question: And the inhibition at 10 µM (CDK13/Cyclin K; experiment 1)?
Answer: 7.7%

Question: And the inhibition at 10 µM (CDK13/Cyclin K; experiment 2)?
Answer: 12.8%

Question: What about the inhibition at 10 µM (CDK1/Cyclin E1; average) of the same compound?
Answer: 31.6%

Question: What about the inhibition at 10 µM (CDK1/Cyclin E1; experiment 1) of the same compound?
Answer: 30.7%

Question: What about the inhibition at 10 µM (CDK1/Cyclin E1; experiment 2) of the same compound?
Answer: 32.5%

Question: And the inhibition at 10 µM (CDK12/Cyclin K; average)?
Answer: 22.1%

Question: What about the inhibition at 10 µM (CDK12/Cyclin K; experiment 1) of the same compound?
Answer: 7%

Question: What about the inhibition at 10 µM (CDK12/Cyclin K; experiment 2) of the same compound?
Answer: 37.2%

Question: What about the inhibition at 10 µM (CDK19/Cyclin C; average) of the same compound?
Answer: 11.4%

Question: And the inhibition at 10 µM (CDK19/Cyclin C; experiment 1)?
Answer: 16.6%

Question: What about the inhibition at 10 µM (CDK19/Cyclin C; experiment 2) of the same compound?
Answer: 6.1%

Question: And the inhibition at 10 µM (CDK10/Cyclin L2; average)?
Answer: 6.6%

Question: And the inhibition at 10 µM (CDK10/Cyclin L2; experiment 1)?
Answer: 10.2%

Question: And the inhibition at 10 µM (CDK10/Cyclin L2; experiment 2)?
Answer: 3.1%

Question: What about the inhibition at 10 µM (CDK16/Cyclin Y; experiment 1) of the same compound?
Answer: 17%

Question: What about the inhibition at 10 µM (CDK16/Cyclin Y; experiment 2) of the same compound?
Answer: 12.6%

Question: And the inhibition at 10 µM (CDK18/Cyclin Y; average)?
Answer: 8.7%

Question: And the inhibition at 10 µM (CDK18/Cyclin Y; experiment 1)?
Answer: 5.1%

Question: What about the inhibition at 10 µM (CDK18/Cyclin Y; experiment 2) of the same compound?
Answer: 12.3%

Question: And the inhibition at 10 µM (CDK4/Cyclin D1; average)?
Answer: 44%

Question: What about the inhibition at 10 µM (CDK4/Cyclin D1; experiment 1) of the same compound?
Answer: 41.2%

Question: And the inhibition at 10 µM (CDK4/Cyclin D1; experiment 2)?
Answer: 46.7%

Question: And the inhibition at 10 µM (CDK15/Cyclin Y; average)?
Answer: -1%

Question: And the inhibition at 10 µM (CDK15/Cyclin Y; experiment 1)?
Answer: 3%

Question: What about the inhibition at 10 µM (CDK15/Cyclin Y; experiment 2) of the same compound?
Answer: -5%

Question: What about the inhibition at 10 µM (CDK2/Cyclin E1; average) of the same compound?
Answer: 18.7%

Question: What about the inhibition at 10 µM (CDK2/Cyclin E1; experiment 1) of the same compound?
Answer: 15.1%

Question: And the inhibition at 10 µM (CDK2/Cyclin E1; experiment 2)?
Answer: 22.2%

Question: What about the inhibition at 10 µM (CDK17/Cyclin Y; average) of the same compound?
Answer: 19%

Question: And the inhibition at 10 µM (CDK17/Cyclin Y; experiment 1)?
Answer: 20.7%

Question: And the inhibition at 10 µM (CDK17/Cyclin Y; experiment 2)?
Answer: 17.3%
